# Reference: publication PMC7827406, “Structure–Activity Relationship (SAR) Study of Spautin-1 to Entail the Discovery of Novel NEK4 Inhibitors” (International Journal of Molecular Sciences, 2021)
# Where two headings read alike, the source gives them in different places.
# Assays:
# Experiment in all cases: biochemical
# Set-up in all cases: Eurofins KinaseProfiler full panel at Km ATP, residual kinase activity (%) relative to DMSO
# [1] = molecular target: ATM(h) (Homo sapiens, UniProt Q13315)
# Outline: (§1)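 Two 10 µM single-concentration screens were run: a competition-binding screen, in which DNA-tagged kinase bound to immobilized ligands was quantified by qPCR, and a radiometric activity panel at Km ATP. Each is expressed as residual kinase activity (%).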
# [2] = molecular target: T1, LATS1(h) (Homo sapiens, UniProt O95835)
# T1 sequence (O95835 1-1130): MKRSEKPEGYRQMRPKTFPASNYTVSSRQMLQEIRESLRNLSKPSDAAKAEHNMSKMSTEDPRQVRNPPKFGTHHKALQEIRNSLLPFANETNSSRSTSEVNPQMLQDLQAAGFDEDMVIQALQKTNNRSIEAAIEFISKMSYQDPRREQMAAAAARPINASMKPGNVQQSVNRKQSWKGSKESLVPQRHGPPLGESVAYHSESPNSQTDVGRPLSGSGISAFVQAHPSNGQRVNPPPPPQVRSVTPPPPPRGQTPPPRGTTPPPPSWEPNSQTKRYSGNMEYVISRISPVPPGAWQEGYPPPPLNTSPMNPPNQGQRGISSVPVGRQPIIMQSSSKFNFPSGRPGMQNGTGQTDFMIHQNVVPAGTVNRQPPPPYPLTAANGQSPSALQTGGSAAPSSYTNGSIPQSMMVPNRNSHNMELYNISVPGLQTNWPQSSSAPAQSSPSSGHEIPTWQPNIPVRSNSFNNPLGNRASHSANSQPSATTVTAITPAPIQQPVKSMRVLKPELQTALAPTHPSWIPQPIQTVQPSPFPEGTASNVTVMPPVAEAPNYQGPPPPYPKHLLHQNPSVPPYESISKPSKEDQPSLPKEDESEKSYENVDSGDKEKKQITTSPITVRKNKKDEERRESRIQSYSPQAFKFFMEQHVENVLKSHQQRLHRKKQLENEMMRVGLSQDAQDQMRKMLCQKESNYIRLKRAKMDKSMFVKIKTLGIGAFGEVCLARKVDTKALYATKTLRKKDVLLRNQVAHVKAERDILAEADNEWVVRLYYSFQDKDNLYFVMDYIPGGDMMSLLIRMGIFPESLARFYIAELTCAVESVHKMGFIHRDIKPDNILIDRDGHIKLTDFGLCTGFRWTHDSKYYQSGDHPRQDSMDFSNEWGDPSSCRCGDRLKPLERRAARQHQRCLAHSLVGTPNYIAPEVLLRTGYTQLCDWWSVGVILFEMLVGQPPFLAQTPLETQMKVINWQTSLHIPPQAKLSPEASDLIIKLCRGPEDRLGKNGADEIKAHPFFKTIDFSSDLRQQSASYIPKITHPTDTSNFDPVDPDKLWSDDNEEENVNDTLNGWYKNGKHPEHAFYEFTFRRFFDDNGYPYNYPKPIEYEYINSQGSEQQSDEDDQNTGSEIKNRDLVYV
# Outline: as §1
# [3] = molecular target: T2, PI3 Kinase (p110a/p65a)(h) (Homo sapiens, UniProt P42336)
# T2 construct: gene PIK3CA; with p65a
# Outline: as §1
# [4] = molecular target: T3, PKCα(h) (Homo sapiens, UniProt P17252)
# T3 construct: gene PRKCA
# Outline: as §1
# [5] = molecular target: T4, MAK(h) (Homo sapiens, UniProt P20794)
# T4 sequence (P20794 1-623): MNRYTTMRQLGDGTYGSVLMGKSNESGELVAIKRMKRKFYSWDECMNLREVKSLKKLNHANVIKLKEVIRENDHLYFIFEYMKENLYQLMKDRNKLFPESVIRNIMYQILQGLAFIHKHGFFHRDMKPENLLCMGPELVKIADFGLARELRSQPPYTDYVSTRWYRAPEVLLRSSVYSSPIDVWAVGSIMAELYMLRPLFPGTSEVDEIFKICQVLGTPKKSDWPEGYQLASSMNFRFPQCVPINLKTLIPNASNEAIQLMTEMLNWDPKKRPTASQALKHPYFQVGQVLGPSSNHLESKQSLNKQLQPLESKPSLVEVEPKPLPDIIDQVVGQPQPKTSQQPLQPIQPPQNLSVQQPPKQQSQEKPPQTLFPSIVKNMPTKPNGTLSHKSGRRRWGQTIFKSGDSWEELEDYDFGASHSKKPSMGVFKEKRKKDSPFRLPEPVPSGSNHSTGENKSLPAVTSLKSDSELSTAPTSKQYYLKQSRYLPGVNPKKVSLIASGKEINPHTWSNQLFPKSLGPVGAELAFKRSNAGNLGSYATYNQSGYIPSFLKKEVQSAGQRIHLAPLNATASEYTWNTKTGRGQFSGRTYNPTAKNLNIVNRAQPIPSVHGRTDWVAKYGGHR
# Outline: as §1
# [6] = read-out: Residual activity (%) Spautin-1 5aa
# [7] = read-out: Residual activity (%) 5as
# [8] = read-out: Residual activity (%) 5at
# [9] = read-out: Residual activity (%) 5ay
# Sequence of ATM(h) (Q13315 whole entry): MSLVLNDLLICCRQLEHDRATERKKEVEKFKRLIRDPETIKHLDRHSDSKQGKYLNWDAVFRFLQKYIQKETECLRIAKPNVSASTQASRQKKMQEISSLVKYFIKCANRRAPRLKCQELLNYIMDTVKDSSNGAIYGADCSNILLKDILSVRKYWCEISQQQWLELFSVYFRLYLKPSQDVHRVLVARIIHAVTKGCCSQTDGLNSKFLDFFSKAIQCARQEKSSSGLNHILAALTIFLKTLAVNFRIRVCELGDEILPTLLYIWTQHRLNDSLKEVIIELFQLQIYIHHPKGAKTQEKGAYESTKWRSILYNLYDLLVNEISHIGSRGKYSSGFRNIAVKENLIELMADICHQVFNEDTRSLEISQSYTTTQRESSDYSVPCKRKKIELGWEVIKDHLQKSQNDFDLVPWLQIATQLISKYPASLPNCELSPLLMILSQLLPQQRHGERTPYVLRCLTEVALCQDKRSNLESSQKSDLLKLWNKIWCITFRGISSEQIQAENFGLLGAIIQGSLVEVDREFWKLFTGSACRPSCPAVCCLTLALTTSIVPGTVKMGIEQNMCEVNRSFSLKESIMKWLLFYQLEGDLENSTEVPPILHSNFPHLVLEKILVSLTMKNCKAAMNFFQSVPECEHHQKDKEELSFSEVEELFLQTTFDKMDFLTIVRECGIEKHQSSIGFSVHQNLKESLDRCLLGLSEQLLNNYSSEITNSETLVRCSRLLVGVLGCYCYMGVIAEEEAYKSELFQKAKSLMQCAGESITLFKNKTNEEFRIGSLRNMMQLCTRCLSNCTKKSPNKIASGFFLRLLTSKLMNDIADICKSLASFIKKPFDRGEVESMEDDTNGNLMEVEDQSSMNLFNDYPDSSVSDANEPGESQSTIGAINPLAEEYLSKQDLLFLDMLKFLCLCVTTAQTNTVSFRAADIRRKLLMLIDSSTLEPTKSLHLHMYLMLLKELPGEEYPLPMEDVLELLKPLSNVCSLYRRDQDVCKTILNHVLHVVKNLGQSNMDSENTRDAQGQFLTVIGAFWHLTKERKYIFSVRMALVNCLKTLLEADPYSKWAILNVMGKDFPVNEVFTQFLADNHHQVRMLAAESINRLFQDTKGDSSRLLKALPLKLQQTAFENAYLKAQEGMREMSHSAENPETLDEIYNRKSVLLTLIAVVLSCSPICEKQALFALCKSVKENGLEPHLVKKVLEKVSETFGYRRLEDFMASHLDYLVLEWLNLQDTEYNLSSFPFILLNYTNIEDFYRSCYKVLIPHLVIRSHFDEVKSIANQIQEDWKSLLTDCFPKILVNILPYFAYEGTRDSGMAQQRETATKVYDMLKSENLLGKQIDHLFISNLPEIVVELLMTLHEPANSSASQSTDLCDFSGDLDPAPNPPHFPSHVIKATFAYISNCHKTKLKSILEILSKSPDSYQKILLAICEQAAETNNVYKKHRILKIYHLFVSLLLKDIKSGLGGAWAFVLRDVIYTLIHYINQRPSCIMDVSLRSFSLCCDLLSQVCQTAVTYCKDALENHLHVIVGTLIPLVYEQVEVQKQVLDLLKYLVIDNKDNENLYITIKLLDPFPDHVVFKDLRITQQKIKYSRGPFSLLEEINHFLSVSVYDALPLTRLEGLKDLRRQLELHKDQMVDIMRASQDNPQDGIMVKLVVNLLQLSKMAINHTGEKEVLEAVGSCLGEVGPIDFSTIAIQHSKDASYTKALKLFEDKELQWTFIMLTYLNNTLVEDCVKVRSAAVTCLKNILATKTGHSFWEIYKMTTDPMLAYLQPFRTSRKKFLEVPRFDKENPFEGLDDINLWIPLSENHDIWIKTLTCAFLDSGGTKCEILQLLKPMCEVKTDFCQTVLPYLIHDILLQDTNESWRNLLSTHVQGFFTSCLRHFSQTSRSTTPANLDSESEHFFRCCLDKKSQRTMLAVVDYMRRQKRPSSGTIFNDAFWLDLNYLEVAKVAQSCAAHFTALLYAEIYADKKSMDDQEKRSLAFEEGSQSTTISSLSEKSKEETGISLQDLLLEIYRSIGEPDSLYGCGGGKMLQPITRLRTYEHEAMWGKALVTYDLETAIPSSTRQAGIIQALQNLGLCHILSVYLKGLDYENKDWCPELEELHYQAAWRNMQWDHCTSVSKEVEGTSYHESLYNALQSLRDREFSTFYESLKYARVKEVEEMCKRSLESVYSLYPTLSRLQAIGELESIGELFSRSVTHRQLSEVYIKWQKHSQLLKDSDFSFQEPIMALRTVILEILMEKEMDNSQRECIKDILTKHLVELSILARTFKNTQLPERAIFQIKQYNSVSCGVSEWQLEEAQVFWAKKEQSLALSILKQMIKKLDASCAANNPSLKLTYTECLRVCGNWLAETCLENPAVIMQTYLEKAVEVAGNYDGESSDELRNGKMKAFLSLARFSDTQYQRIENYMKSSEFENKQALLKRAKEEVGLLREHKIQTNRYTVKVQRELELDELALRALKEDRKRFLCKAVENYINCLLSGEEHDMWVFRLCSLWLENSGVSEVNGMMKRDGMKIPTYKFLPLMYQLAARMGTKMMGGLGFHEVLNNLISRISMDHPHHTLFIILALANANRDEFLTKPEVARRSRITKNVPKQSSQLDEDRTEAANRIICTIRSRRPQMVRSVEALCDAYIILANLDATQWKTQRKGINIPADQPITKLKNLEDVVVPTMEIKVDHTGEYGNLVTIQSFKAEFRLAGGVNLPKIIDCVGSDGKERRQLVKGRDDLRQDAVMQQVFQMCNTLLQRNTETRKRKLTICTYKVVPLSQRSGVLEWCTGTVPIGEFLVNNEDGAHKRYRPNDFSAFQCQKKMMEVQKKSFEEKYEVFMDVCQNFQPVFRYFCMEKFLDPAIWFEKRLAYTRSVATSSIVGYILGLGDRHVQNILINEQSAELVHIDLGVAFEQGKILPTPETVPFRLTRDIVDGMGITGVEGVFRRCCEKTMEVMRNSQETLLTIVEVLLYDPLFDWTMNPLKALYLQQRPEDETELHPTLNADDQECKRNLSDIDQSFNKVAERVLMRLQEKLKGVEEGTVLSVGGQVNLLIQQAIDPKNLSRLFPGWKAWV
compound,measurement,setting,value
"Fc1ccc(CNc2ncnc3ccc(F)cc23)cc1 [5aa, 6-Fluoro-N-(4-fluorobenzyl)-4-Quinazolinamine]",remaining activity at 10 µM,[1]; [6],93%
same,remaining activity at 10 µM,[2]; [6],102%
same,remaining activity at 10 µM,[3]; [6],98%
same,remaining activity at 10 µM,[4]; [6],89%
same,remaining activity at 10 µM,[5]; [6],89%
"Fc1ccc(CCNc2ncnc3ccc(F)cc23)cc1 [5as, 6-Fluoro-N-[2-(4-Fluorophenyl)Ethyl]-4-Quinazolinamine]",remaining activity at 10 µM,[1]; [7],88%
same,remaining activity at 10 µM,[2]; [7],79%
same,remaining activity at 10 µM,[3]; [7],95%
same,remaining activity at 10 µM,[4]; [7],94%
same,remaining activity at 10 µM,[5]; [7],77%
"Fc1ccc2ncnc(NCCc3ccc(Cl)cc3)c2c1 [5at, N-[2-(4-Chlorophenyl)Ethyl]-6-Fluoro-4-Quinazolinamine]",remaining activity at 10 µM,[1]; [8],86%
same,remaining activity at 10 µM,[2]; [8],83%
same,remaining activity at 10 µM,[3]; [8],94%
same,remaining activity at 10 µM,[4]; [8],79%
same,remaining activity at 10 µM,[5]; [8],76%
"COc1ccc2ncnc(Nc3cccc(F)c3)c2c1 [5ay, N-(3-Fluorophenyl)-6-Methoxy-4-Quinazolinamine]",remaining activity at 10 µM,[1]; [9],90%
same,remaining activity at 10 µM,[2]; [9],79%
same,remaining activity at 10 µM,[3]; [9],91%
same,remaining activity at 10 µM,[4]; [9],86%
same,remaining activity at 10 µM,[5]; [9],74%
